Laboratory results reported in PubChem BioAssay (NCI).
Where “and” joins values, the source holds several entries; their conditions need not be identical. Equal entries are not always repeated.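 In this assay, cells in 96-well plates receive the compound at five concentrations for 48 hours. Endpoints are linearly interpolated between the surrounding concentrations. GI50 is the concentration that inhibits growth by half. At the TGI there is no net growth.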

Legend:
Test in all cases: NCI anticancer screen, dose series, 48 h
DU-145 prostate = system: DU-145 prostate
NCI/ADR-RES ovarian = system: NCI/ADR-RES ovarian
PC-3 prostate = system: PC-3 prostate
HS 578T breast = system: HS 578T breast
T-47D breast = system: T-47D breast
BT-549 breast = system: BT-549 breast

Compound	GI50 (DU-145 prostate)	TGI (DU-145 prostate)	GI50 (NCI/ADR-RES ovarian)	TGI (NCI/ADR-RES ovarian)	GI50 (PC-3 prostate)	TGI (PC-3 prostate)	GI50 (HS 578T breast)	TGI (HS 578T breast)	GI50 (T-47D breast)	TGI (T-47D breast)	GI50 (BT-549 breast)	TGI (BT-549 breast)
C[C@@H]1N=C(c2ccc(Br)cc2)Nc2nc3ccccn3c2C1=O	23.2 µM	> 100 µM	7.45 µM	> 100 µM	5.7 µM	> 100 µM	2.81 µM	52 µM	4.62 µM	> 100 µM	5.49 µM	> 100 µM
O=c1[nH]ccc2nc(N3CCC(O)CC3)nc(Nc3cccc(C(F)(F)F)c3)c12	1.56 µM	19.3 µM	2.37 µM	7.33 µM	2.29 µM	13 µM	1.93 µM	14.1 µM	3.11 µM	26.1 µM	1.6 µM	4.34 µM
Cn1nc(-c2ccccc2)nc1[N+](=O)[O-]		> 10 µM		> 10 µM		> 10 µM		> 10 µM		> 10 µM		> 10 µM
Nc1cc(-c2cccc(OC(F)(F)F)c2)nc2ccc(N3CCCC3)cc12	0.0458 µM and 0.0446 µM and 0.0377 µM	13.2 µM and > 100 µM and > 57.8 µM	0.0362 µM and 0.0363 µM and 0.0324 µM	20 µM and > 100 µM	0.0455 µM and 0.0429 µM and 0.0372 µM	26.9 µM and > 100 µM	0.051 µM and 0.0484 µM and 0.0347 µM	13.2 µM and > 100 µM	18.8 µM	92.4 µM	0.208 µM and 0.182 µM and 0.1 µM	> 100 µM
Cc1cccc(Cl)c1NC(=O)/C=C/c1ccccc1		> 100 µM				> 100 µM		> 100 µM		> 100 µM		> 100 µM
c1cc(OCCN2CCCCC2)ccc1CNc1ccc2nc(CCC3CCCCC3)[nH]c2c1	3.33 µM	11.5 µM	2.21 µM	5.74 µM	1.6 µM	3.71 µM	1.64 µM	4.64 µM	1.71 µM	4.52 µM	1.71 µM	3.87 µM
COc1ccc2c(CN3CCC[C@H]3C(=O)O)cc3cc4c(cc3c2c1)OCO4	19.7 µM	> 100 µM	23.8 µM	> 100 µM			11.6 µM	48 µM	20 µM	> 100 µM	15.7 µM	43.3 µM
CN(C)C1CCN(C(=O)c2ccc(NC(=O)Nc3ccc(-c4nc(N5CCOCC5)nc(N5CCOCC5)n4)cc3)cc2)CC1	0.0157 µM and 0.0156 µM and 0.0258 µM	14.6 µM and 2.5 µM and 7.51 µM	29.4 µM and 4.87 µM	> 100 µM	< 0.01 µM and 0.0108 µM and 0.0309 µM	0.407 µM and 0.216 µM and 1.06 µM	< 0.01 µM and 0.00879 µM and 0.025 µM	0.061 µM and 0.0697 µM and 0.343 µM	< 0.01 µM and 0.00386 µM and 0.0056 µM	0.0345 µM and 0.0176 µM and 0.0884 µM	0.018 µM and 0.0199 µM and 0.0434 µM	0.239 µM and 0.206 µM and 0.635 µM
C=C[C@H]1CCC/C=C/[C@@H]2C[C@H](O)C[C@H]2[C@H](O)/C=C/C(=O)O1	0.0771 µM	> 100 µM	0.0361 µM	> 100 µM	0.0458 µM	> 100 µM	< 0.01 µM	> 100 µM	0.0285 µM	0.0973 µM	0.05 µM	> 100 µM
COc1ccc(-c2ccc(/C=N/n3c(COc4ccc(Cl)cc4Cl)nn(CN4CCN(C)CC4)c3=S)o2)c([N+](=O)[O-])c1	17.1 µM	> 100 µM	18.1 µM	45.5 µM	17.6 µM	76.8 µM	37.8 µM	> 100 µM	11.7 µM	53.2 µM		
C=CCN(CC=C)C(=O)c1cc(C)nc2c1c(=O)n(-c1ccccc1)c(=O)n2CC(O)CN1CCN(c2ncccn2)CC1 (configuration not stated)	> 100 µM	> 100 µM	> 100 µM	> 100 µM			> 100 µM	> 100 µM	> 100 µM	> 100 µM		
O=C([O][Hg][CH2]C1COCC([CH2][Hg][O]C(=O)c2ccccc2)O1)c1ccccc1 (configuration not stated)	15.2 µM	28.7 µM	21.1 µM	61.6 µM	15.9 µM	32.4 µM	19.8 µM	65.8 µM			17.3 µM	31.2 µM
NC(=N\N=C/c1cccc([N+](=O)[O-])c1)/C(N)=N\N=C/c1cccc([N+](=O)[O-])c1	> 100 µM	> 100 µM	> 100 µM	> 100 µM	> 100 µM	> 100 µM	> 100 µM	> 100 µM	> 100 µM	> 100 µM		
C=CCN1C=CC(=O)[C@H](O[Si](C)(C)C(C)(C)C)[C@@H]1/C=C/c1ccccc1	15.7 µM	30.1 µM	13.3 µM	26.8 µM			14.1 µM	34.3 µM	4.04 µM	17 µM	16 µM	35 µM
CC(C)CNc1nc(-c2ccccc2)nc2ccccc12	14.8 µM	28.2 µM	13.4 µM	31.4 µM	17.1 µM	34.8 µM	16.5 µM	33.9 µM	21.6 µM	> 100 µM		
COc1c(Cl)c2c(c(OC)c1OC)-c1ccc(SC)c(=O)cc1[C@@H](NC(=O)OCC(F)(F)F)CC2	< 0.01 µM	0.871 µM	0.0182 µM		< 0.01 µM	> 72.8 µM	< 0.01 µM	> 100 µM			< 0.01 µM	0.956 µM
O=[N+]([O-])c1ccc(N=Nc2c(O)ccc3ccccc23)cc1		> 100 µM				> 100 µM	18.3 µM and > 100 µM	46.6 µM and > 100 µM		> 100 µM	30.3 µM and > 100 µM	96.1 µM and > 100 µM
